Legend:
acetylcholinesterase [1] = assay: Inhibition of the immobilized enzyme of the bioassay element by pesticides (FIG. 5); type: biochemical; conditions: for detection sensitivity of the bioassay element (rank among five pesticides; carbofuran>naled>malathion>carbaryl=trichlorfon): at any same concentration
Excerpt: (§1) The bioassay element of the present invention is referred to FIG. 1 which illustrates the structure of bioassay element in one embodiment of the present invention. The bioassay element includes a carrier 100, an enzyme 110 as a testing material, and a coating film 120. The carrier includes a membrane 101 and a stationary layer 102 applying on the membrane 101. The enzyme 110 is dispersed in the coating film 120 that covers on the surface of the stationary layer 102. The coating film 120 effectively increases the amount of the immobilized enzyme 110 and raises the activity of the enzyme 110 and fixes the enzyme 110 on the surface of the carrier. In the working example of the present invention, the enzyme acetylcholinesterase is selected, and the coating film 120 consists of casein, calcium ions, a color developer (DTNB), and trehalose. The stationary layer 102 consists of casein and calcium ions.
In the working example of the present invention, the stationary-layer mixed solution was prepared by mixing 120 mM of a calcium ion solution and 2.5% of a casein solution in a ratio of 1:14 by volume. The bioassay solution was prepared by mixing an enzyme solution and the mixed solution containing casein in a ratio of 5:7 by volume. The enzyme solution was prepared by mixing 1.52 U/μl of an enzyme and 5% of trehalose in a ratio of 2.61:108 by volume. The mixed solution containing casein was mixed with a color developer, 120 mM of a calcium ion solution and 4% of a casein solution in a ratio of (0.009 to 0.012):1:(6 to 7.75) (w/v/v).
The results of the inhibiting effect of several pesticides (with different concentrations) on the bioassay element of the present invention are referred to FIG. 5. […] At the same concentration, the higher inhibition represents that the enzyme has higher detection sensitivity to pesticide. […] Within the linear relationship between the concentration of each pesticide and the inhibition of the enzyme, a biosensor capable of quantitatively detecting pesticides in association with optical sensors can be designed.
Therefore, if the inhibition of the enzyme activity is greater than 30%, it should be very easy to distinguish the yellow-color level difference by human eyes. In addition, when the concentration of naled was greater than 3.5 ppm and the concentrations of malathion, trichlorfon and carbaryl were greater than 7 ppm, the inhibition of the enzyme activity would be greater than 60%. Thus, the color would become colorless.

acetylcholinesterase [2] = assay: Color change of the bioassay element against pesticides, judged by human eyes (FIG. 6); type: biochemical; conditions: color changes from yellow to yellowish
Excerpt: as §1
If the inhibition of the enzyme activity is greater than 60%, the color will become colorless. To discriminate the color change by human eyes, the concentrations of trichlorfon and carbaryl are about 3 ppm, malathion and naled are about 1 ppm, carbafuran is about 0.1 ppm.

| SMILES | concentration dependence of inhibition of the enzyme activity (acetylcholinesterase [1]) | detection sensitivity of the bioassay element (rank among five pesticides; carbofuran>naled>malathion>carbaryl=trichlorfon) (acetylcholinesterase [1]) | inhibition of the enzyme activity (acetylcholinesterase [1]; pesticide concentration 3 ppm) | concentration to discriminate the color change by human eyes (acetylcholinesterase [2]) | concentration range with linear relationship between pesticide concentration and inhibition of the enzyme activity (acetylcholinesterase [1]) | pesticide concentration above which the increase of inhibition is plateau (acetylcholinesterase [1]) | inhibition of the enzyme activity (acetylcholinesterase [1]; pesticide concentration about 0.1 ppm) | inhibition of the enzyme activity (acetylcholinesterase [1]; pesticide concentration 1 ppm) |
| --- | --- | --- | --- | --- | --- | --- | --- | --- |
| CNC(=O)Oc1cccc2ccccc12 [carbaryl] | increased with increasing concentrations | lowest | about 28% | about 3 ppm | – | – | – | – |
| CNC(=O)Oc1cccc2c1OC(C)(C)C2 [carbofuran] | – | highest | – | about 0.1 ppm | 0 to 0.1 ppm | greater than 0.1 ppm | 65% | – |
| CCOC(=O)CC(SP(=S)(OC)OC)C(=O)OCC (stereo not shown) [malathion] | – | next | – | about 1 ppm | – | – | – | 28% |
| COP(=O)(OC)OC(Br)C(Cl)(Cl)Br (stereo not shown) [naled] | – | next | – | about 1 ppm | – | – | – | 39% |
| COP(=O)(OC)C(O)C(Cl)(Cl)Cl (stereo not shown) [trichlorfon] | increased with increasing concentrations | lowest | about 28% | about 3 ppm | – | – | – | – |

Reference: patent US7883859B2, “Method for producing active and stable acetylcholinesterase bioassay element” (priority 2005, dated 2011)
